Experimental data reported in ChEMBL document CHEMBL3822358 (J Med Chem, 2016).

System: not listed separately
Experiment: cells
Details: Homo sapiens, KARPAS-299, 72 h
Description: Antiproliferative activity against human ALK-positive KARPAS299 cells assessed as reduction in cell viability measured after 72 hrs by CellTiter 96 aqueous one solution cell proliferation assay

**Q.** For `COc1cc(N2CCC(N3CCCC3)CC2)ccc1Nc1ncc(Cl)c(Nc2ccccc2P(C)(C)=O)n1`, which IC50 is on record?
**A.** 0.0211 µM

**Q.** For `COc1cc(C2CCN(C)CC2)ccc1Nc1ncc(Cl)c(Nc2ccccc2P(C)(C)=O)n1`, which IC50 is on record?
**A.** 0.0192 µM

System: not listed separately
Experiment: AUC (0 to 24 hrs) in mouse at 10 mg/kg, po by LC-MS/MS analysis
Assay type: ADME, organism-based
Design: time < 24 hr, dose 10 mg/kg, route oral
Details: in vivo

**Q.** With `COc1cc(N2CCC(N3CCCC3)CC2)ccc1Nc1ncc(Cl)c(Nc2ccccc2P(C)(C)=O)n1` as the compound, how does the AUC(0-t) at 24 h read?
**A.** 3.23 µg·h/mL

**Q.** With `COc1cc(C2CCN(C)CC2)ccc1Nc1ncc(Cl)c(Nc2ccccc2P(C)(C)=O)n1` as the compound, how does the AUC(0-t) at 24 h read?
**A.** 3.45 µg·h/mL

System: not listed separately
Experiment: Oral bioavailability in CD rat at 10 mg/kg by LC-MS/MS analysis
Assay type: ADME, organism-based
Details: in vivo

**Q.** For `COc1cc(N2CCC(N3CCCC3)CC2)ccc1Nc1ncc(Cl)c(Nc2ccccc2P(C)(C)=O)n1`, which bioavailability is on record?
**A.** 19%

**Q.** For `COc1cc(C2CCN(C)CC2)ccc1Nc1ncc(Cl)c(Nc2ccccc2P(C)(C)=O)n1`, which bioavailability is on record?
**A.** 110%

System: not listed separately
Experiment: Clearance in CD rat at 3 mg/kg, iv by LC-MS/MS analysis
Assay type: ADME, organism-based
Details: in vivo

**Q.** For `COc1cc(N2CCC(N3CCCC3)CC2)ccc1Nc1ncc(Cl)c(Nc2ccccc2P(C)(C)=O)n1`, which clearance is on record?
**A.** 1.36 L/h/kg

**Q.** With `COc1cc(C2CCN(C)CC2)ccc1Nc1ncc(Cl)c(Nc2ccccc2P(C)(C)=O)n1` as the compound, how does the clearance read?
**A.** 1.91 L/h/kg

System: not listed separately
Experiment: Cmax in CD rat at 10 mg/kg, po by LC-MS/MS analysis
Assay type: ADME, organism-based
Design: dose 10 mg/kg, route oral
Details: in vivo

**Q.** Which Cmax does the source give for `COc1cc(N2CCC(N3CCCC3)CC2)ccc1Nc1ncc(Cl)c(Nc2ccccc2P(C)(C)=O)n1` here?
**A.** 0.109 µg/mL

**Q.** For `COc1cc(C2CCN(C)CC2)ccc1Nc1ncc(Cl)c(Nc2ccccc2P(C)(C)=O)n1`, which Cmax is on record?
**A.** 0.601 µg/mL

System: not listed separately
Experiment: Volume of distribution at steady state in CD rat at 3 mg/kg, iv by LC-MS/MS analysis
Assay type: ADME, organism-based
Details: CD, in vivo, read-out: Vdss

**Q.** Which Vd does the source give for `COc1cc(N2CCC(N3CCCC3)CC2)ccc1Nc1ncc(Cl)c(Nc2ccccc2P(C)(C)=O)n1` here?
**A.** 6.61 L/kg

**Q.** For `COc1cc(C2CCN(C)CC2)ccc1Nc1ncc(Cl)c(Nc2ccccc2P(C)(C)=O)n1`, which Vd is on record?
**A.** 8.55 L/kg

Target: Insulin receptor (Homo sapiens, UniProt P06213)
Experiment: not given
Details: not given

Chain of Insulin receptor (P06213 28-758 limits assumed): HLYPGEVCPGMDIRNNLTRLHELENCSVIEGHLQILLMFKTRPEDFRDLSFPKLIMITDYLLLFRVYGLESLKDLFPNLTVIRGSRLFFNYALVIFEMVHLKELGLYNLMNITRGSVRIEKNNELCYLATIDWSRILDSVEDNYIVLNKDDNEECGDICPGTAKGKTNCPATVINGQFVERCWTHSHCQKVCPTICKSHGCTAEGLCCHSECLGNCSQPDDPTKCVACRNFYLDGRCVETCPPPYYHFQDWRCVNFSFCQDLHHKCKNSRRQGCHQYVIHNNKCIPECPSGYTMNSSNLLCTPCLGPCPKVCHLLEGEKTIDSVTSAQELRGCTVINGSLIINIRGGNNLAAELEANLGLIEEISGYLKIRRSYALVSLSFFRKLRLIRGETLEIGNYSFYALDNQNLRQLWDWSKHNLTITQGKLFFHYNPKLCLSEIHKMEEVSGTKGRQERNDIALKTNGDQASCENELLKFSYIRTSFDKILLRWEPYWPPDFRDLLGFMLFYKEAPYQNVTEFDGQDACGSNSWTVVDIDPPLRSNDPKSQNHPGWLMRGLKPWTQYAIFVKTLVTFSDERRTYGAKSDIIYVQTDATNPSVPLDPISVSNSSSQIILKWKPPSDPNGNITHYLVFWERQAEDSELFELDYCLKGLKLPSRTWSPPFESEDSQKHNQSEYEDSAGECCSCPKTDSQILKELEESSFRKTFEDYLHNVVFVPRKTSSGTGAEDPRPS
Chain of Insulin receptor (P06213 763-1382 limits assumed): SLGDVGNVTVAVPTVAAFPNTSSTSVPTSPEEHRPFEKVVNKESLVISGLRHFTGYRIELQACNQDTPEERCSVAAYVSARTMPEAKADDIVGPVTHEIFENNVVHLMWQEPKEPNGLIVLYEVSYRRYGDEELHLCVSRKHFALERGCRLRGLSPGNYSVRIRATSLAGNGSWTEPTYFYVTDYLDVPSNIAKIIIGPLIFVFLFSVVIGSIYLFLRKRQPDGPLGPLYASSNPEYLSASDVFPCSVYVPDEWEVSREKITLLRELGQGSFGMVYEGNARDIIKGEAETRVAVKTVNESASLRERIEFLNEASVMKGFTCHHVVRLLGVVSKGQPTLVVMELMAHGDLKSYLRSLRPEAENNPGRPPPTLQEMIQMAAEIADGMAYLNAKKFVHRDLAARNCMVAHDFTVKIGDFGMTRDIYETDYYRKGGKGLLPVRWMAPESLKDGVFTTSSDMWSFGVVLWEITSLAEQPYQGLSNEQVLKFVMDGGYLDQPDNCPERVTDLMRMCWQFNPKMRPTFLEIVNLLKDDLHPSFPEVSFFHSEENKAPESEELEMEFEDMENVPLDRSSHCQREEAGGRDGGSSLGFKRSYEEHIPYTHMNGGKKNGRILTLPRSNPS

**Q.** For `COc1cc(N2CCC(N3CCCC3)CC2)ccc1Nc1ncc(Cl)c(Nc2ccccc2P(C)(C)=O)n1`, which IC50 is on record?
**A.** 0.0853 µM

**Q.** For `COc1cc(C2CCN(C)CC2)ccc1Nc1ncc(Cl)c(Nc2ccccc2P(C)(C)=O)n1`, which IC50 is on record?
**A.** 0.0572 µM

System: not listed separately
Experiment: Half life in mouse at 10 mg/kg, po by LC-MS/MS analysis
Assay type: ADME, organism-based
Details: in vivo

**Q.** With `COc1cc(N2CCC(N3CCCC3)CC2)ccc1Nc1ncc(Cl)c(Nc2ccccc2P(C)(C)=O)n1` as the compound, how does the half-life read?
**A.** 3.1 h

**Q.** Which half-life does the source give for `COc1cc(C2CCN(C)CC2)ccc1Nc1ncc(Cl)c(Nc2ccccc2P(C)(C)=O)n1` here?
**A.** 5 h

Target: T1, ALK tyrosine kinase receptor (Homo sapiens, UniProt Q9UM73)
Experiment: Inhibition of ALK phosphorylation in mouse xenografted with human KARPAS299 cells assessed as p-ALK level at 25 mg/kg, po administered as single dose measured after 10 hrs relative to 2 hrs vehicle-treated tumor
Assay type: organism-based
Design: scale not given: the % may be the effect or the level left
Details: KARPAS-299
Target sequence in this assay (Q9UM73 19-1620 limits assumed): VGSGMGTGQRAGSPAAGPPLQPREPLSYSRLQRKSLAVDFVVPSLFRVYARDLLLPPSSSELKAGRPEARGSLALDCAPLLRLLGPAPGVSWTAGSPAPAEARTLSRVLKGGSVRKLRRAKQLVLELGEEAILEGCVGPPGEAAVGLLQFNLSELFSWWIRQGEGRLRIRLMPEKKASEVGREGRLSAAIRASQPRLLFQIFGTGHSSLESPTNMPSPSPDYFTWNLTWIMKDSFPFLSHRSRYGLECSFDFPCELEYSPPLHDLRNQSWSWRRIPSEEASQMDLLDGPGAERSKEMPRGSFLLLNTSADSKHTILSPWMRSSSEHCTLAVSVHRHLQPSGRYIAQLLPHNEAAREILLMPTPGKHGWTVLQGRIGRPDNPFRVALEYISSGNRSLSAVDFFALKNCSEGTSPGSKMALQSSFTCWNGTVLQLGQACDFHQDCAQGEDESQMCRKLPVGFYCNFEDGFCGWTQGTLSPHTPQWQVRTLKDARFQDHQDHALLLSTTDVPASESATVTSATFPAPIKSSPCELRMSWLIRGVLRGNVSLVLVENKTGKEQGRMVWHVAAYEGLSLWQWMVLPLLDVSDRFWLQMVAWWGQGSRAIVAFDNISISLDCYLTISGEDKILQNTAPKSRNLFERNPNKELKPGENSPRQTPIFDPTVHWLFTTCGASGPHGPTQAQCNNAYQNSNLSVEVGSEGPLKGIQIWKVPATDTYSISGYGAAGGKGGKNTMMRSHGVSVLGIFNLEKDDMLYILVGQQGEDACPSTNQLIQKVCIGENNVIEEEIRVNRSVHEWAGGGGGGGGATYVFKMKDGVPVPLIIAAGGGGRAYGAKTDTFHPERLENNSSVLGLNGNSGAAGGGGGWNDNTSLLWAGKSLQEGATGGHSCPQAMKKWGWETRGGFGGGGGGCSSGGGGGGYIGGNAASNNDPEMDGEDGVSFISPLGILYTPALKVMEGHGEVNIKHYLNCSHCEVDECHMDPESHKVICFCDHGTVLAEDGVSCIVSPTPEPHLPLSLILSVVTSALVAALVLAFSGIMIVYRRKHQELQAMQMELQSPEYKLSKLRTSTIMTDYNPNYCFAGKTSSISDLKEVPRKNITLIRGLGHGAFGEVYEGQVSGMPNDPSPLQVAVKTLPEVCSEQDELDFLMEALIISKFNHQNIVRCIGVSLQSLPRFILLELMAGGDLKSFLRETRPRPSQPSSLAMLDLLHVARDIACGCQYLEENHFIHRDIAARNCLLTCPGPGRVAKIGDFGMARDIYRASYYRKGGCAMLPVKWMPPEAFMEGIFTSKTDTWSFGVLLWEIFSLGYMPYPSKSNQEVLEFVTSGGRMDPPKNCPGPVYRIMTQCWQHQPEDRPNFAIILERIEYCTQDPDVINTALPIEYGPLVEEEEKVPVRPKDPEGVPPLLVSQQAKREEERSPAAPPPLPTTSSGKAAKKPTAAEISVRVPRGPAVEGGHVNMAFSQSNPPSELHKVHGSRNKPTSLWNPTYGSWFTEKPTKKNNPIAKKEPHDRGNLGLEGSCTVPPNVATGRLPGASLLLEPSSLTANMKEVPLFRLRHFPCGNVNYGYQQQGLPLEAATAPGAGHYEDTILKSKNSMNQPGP

**Q.** For `COc1cc(N2CCC(N3CCCC3)CC2)ccc1Nc1ncc(Cl)c(Nc2ccccc2P(C)(C)=O)n1`, which Activity is on record?
**A.** 2%

**Q.** Which Activity does the source give for `COc1cc(C2CCN(C)CC2)ccc1Nc1ncc(Cl)c(Nc2ccccc2P(C)(C)=O)n1` here?
**A.** 1%

System: not listed separately
Experiment: Cmax in mouse at 10 mg/kg, po by LC-MS/MS analysis
Assay type: ADME, organism-based
Design: dose 10 mg/kg, route oral
Details: in vivo

**Q.** For `COc1cc(N2CCC(N3CCCC3)CC2)ccc1Nc1ncc(Cl)c(Nc2ccccc2P(C)(C)=O)n1`, which Cmax is on record?
**A.** 0.411 µg/mL

**Q.** For `COc1cc(C2CCN(C)CC2)ccc1Nc1ncc(Cl)c(Nc2ccccc2P(C)(C)=O)n1`, which Cmax is on record?
**A.** 0.421 µg/mL

System: not listed separately
Experiment: animal or person
Details: Homo sapiens, KARPAS-299, po, 312 h, read-out: TGI
Description: Antitumor activity against human KARPAS299 cells expressing NMP-ALK fusion protein xenografted in SCID/beige mouse assessed as tumor growth inhibition at 50 mg/kg, po administered once daily for 13 days relative to untreated control

**Q.** With `COc1cc(N2CCC(N3CCCC3)CC2)ccc1Nc1ncc(Cl)c(Nc2ccccc2P(C)(C)=O)n1` as the compound, how does the inhibition in vivo at 50 mg/kg read?
**A.** 26%

System: not listed separately
Experiment: AUC (0 to infinity) in CD rat at 3 mg/kg, iv by LC-MS/MS analysis
Assay type: ADME, organism-based
Design: dose 3 mg/kg, time infinity, route intravenous
Details: CD, in vivo

**Q.** With `COc1cc(N2CCC(N3CCCC3)CC2)ccc1Nc1ncc(Cl)c(Nc2ccccc2P(C)(C)=O)n1` as the compound, how does the AUC(0-inf) read?
**A.** 2.17 µg·h/mL

**Q.** For `COc1cc(C2CCN(C)CC2)ccc1Nc1ncc(Cl)c(Nc2ccccc2P(C)(C)=O)n1`, which AUC(0-inf) is on record?
**A.** 1.55 µg·h/mL

Target: T1, ALK tyrosine kinase receptor
Experiment: not given
Details: not given
Target sequence in this assay (Q9UM73 whole entry): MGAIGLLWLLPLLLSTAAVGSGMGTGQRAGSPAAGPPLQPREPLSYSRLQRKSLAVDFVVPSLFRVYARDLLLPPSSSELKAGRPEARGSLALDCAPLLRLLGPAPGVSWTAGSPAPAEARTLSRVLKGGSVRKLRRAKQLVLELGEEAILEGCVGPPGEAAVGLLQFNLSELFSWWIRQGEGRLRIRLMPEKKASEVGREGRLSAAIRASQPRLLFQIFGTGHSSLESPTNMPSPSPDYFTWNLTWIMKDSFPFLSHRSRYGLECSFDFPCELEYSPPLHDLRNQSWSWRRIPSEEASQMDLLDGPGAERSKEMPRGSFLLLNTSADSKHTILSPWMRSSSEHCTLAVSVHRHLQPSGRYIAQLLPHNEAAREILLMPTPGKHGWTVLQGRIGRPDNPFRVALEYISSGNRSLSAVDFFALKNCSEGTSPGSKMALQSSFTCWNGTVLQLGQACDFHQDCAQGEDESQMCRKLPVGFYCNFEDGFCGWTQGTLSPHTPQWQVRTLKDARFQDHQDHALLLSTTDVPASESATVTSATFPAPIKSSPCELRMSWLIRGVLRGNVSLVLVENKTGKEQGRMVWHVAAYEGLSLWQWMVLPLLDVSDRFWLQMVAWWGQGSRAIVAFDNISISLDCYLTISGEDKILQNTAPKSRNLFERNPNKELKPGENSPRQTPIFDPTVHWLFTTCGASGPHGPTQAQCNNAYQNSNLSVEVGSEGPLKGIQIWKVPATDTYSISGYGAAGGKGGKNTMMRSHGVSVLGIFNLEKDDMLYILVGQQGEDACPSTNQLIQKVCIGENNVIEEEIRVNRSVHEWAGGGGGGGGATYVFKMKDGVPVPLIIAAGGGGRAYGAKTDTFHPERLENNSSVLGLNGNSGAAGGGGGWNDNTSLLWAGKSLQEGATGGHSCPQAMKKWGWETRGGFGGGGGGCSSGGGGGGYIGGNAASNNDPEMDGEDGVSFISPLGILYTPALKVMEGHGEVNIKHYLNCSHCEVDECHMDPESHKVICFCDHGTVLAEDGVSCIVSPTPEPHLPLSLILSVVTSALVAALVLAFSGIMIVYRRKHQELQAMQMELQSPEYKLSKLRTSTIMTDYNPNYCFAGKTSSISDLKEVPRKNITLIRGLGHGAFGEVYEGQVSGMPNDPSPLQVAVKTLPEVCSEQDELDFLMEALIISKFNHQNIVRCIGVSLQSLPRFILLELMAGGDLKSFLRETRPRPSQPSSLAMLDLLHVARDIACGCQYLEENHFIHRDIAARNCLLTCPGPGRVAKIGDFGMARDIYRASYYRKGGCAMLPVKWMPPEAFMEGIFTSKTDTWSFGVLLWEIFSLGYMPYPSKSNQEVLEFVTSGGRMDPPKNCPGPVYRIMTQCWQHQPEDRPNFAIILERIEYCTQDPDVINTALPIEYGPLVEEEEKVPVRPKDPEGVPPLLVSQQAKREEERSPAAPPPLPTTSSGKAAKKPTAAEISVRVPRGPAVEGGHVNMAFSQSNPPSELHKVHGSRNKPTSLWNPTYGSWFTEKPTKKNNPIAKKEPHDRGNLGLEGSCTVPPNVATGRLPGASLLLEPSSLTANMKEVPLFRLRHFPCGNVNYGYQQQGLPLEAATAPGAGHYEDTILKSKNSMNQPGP

**Q.** With `COc1cc(N2CCC(N3CCCC3)CC2)ccc1Nc1ncc(Cl)c(Nc2ccccc2P(C)(C)=O)n1` as the compound, how does the IC50 read?
**A.** 0.00053 µM

**Q.** Which IC50 does the source give for `COc1cc(C2CCN(C)CC2)ccc1Nc1ncc(Cl)c(Nc2ccccc2P(C)(C)=O)n1` here?
**A.** 0.00038 µM

System: not listed separately
Experiment: Half life in CD rat at 10 mg/kg, po by LC-MS/MS analysis
Assay type: ADME, organism-based
Details: in vivo

**Q.** For `COc1cc(N2CCC(N3CCCC3)CC2)ccc1Nc1ncc(Cl)c(Nc2ccccc2P(C)(C)=O)n1`, which half-life is on record?
**A.** 3.7 h

**Q.** Which half-life does the source give for `COc1cc(C2CCN(C)CC2)ccc1Nc1ncc(Cl)c(Nc2ccccc2P(C)(C)=O)n1` here?
**A.** 2.5 h

Target: Insulin-like growth factor 1 receptor (Homo sapiens, UniProt P08069)
Experiment: not given
Details: not given

**Q.** For `COc1cc(N2CCC(N3CCCC3)CC2)ccc1Nc1ncc(Cl)c(Nc2ccccc2P(C)(C)=O)n1`, which IC50 is on record?
**A.** 0.0203 µM

**Q.** With `COc1cc(C2CCN(C)CC2)ccc1Nc1ncc(Cl)c(Nc2ccccc2P(C)(C)=O)n1` as the compound, how does the IC50 read?
**A.** 0.0082 µM

System: not listed separately
Experiment: animal or person
Details: Homo sapiens, KARPAS-299, po, 312 h, read-out: TGI
Remark: another data set of the same source
Description: Antitumor activity against human KARPAS299 cells expressing NMP-ALK fusion protein xenografted in SCID/beige mouse assessed as tumor growth inhibition at 10 mg/kg, po administered once daily for 13 days relative to untreated control

**Q.** For `COc1cc(N2CCC(N3CCCC3)CC2)ccc1Nc1ncc(Cl)c(Nc2ccccc2P(C)(C)=O)n1`, which inhibition in vivo at 10 mg/kg is on record?
**A.** 76%

System: not listed separately
Experiment: Half life in CD rat at 3 mg/kg, iv by LC-MS/MS analysis
Assay type: ADME, organism-based
Details: CD, in vivo

**Q.** For `COc1cc(N2CCC(N3CCCC3)CC2)ccc1Nc1ncc(Cl)c(Nc2ccccc2P(C)(C)=O)n1`, which half-life is on record?
**A.** 4.7 h

**Q.** Which half-life does the source give for `COc1cc(C2CCN(C)CC2)ccc1Nc1ncc(Cl)c(Nc2ccccc2P(C)(C)=O)n1` here?
**A.** 4 h

System: not listed separately
Experiment: cells
Details: Homo sapiens, U-937, 72 h
Description: Antiproliferative activity against human ALK-negative U937 cells assessed as reduction in cell viability measured after 72 hrs by CellTiter 96 aqueous one solution cell proliferation assay

**Q.** For `COc1cc(N2CCC(N3CCCC3)CC2)ccc1Nc1ncc(Cl)c(Nc2ccccc2P(C)(C)=O)n1`, which IC50 is on record?
**A.** 1.68 µM

**Q.** Which IC50 does the source give for `COc1cc(C2CCN(C)CC2)ccc1Nc1ncc(Cl)c(Nc2ccccc2P(C)(C)=O)n1` here?
**A.** 3.56 µM

System: not listed separately
Experiment: Tmax in CD rat at 10 mg/kg, po by LC-MS/MS analysis
Assay type: ADME, organism-based
Details: in vivo

**Q.** For `COc1cc(N2CCC(N3CCCC3)CC2)ccc1Nc1ncc(Cl)c(Nc2ccccc2P(C)(C)=O)n1`, which Tmax is on record?
**A.** 4 h

**Q.** With `COc1cc(C2CCN(C)CC2)ccc1Nc1ncc(Cl)c(Nc2ccccc2P(C)(C)=O)n1` as the compound, how does the Tmax read?
**A.** 4 h

Target: T1, ALK tyrosine kinase receptor
Experiment: Inhibition of ALK phosphorylation in mouse xenografted with human KARPAS299 cells assessed as p-ALK level at 25 mg/kg, po administered as single dose measured after 16 hrs relative to 2 hrs vehicle-treated tumor
Assay type: organism-based
Design: scale not given: the % may be the effect or the level left
Details: KARPAS-299
Target sequence in this assay (Q9UM73 19-1620 limits assumed): as the sequence (Q9UM73 19-1620 limits assumed) above

**Q.** With `COc1cc(N2CCC(N3CCCC3)CC2)ccc1Nc1ncc(Cl)c(Nc2ccccc2P(C)(C)=O)n1` as the compound, how does the Activity read?
**A.** 39%

**Q.** With `COc1cc(C2CCN(C)CC2)ccc1Nc1ncc(Cl)c(Nc2ccccc2P(C)(C)=O)n1` as the compound, how does the Activity read?
**A.** 69%

System: not listed separately
Experiment: AUC (0 to infinity) in CD rat at 10 mg/kg, po by LC-MS/MS analysis
Assay type: ADME, organism-based
Design: dose 10 mg/kg, route oral, time infinity
Details: in vivo

**Q.** For `COc1cc(N2CCC(N3CCCC3)CC2)ccc1Nc1ncc(Cl)c(Nc2ccccc2P(C)(C)=O)n1`, which AUC(0-inf) is on record?
**A.** 1.35 µg·h/mL

**Q.** Which AUC(0-inf) does the source give for `COc1cc(C2CCN(C)CC2)ccc1Nc1ncc(Cl)c(Nc2ccccc2P(C)(C)=O)n1` here?
**A.** 5.67 µg·h/mL

Target: T1, ALK tyrosine kinase receptor
Experiment: Inhibition of ALK phosphorylation in mouse xenografted with human KARPAS299 cells assessed as p-ALK level at 25 mg/kg, po administered as single dose measured after 24 hrs relative to 2 hrs vehicle-treated tumor
Assay type: organism-based
Design: scale not given: the % may be the effect or the level left
Details: KARPAS-299
Target sequence in this assay (Q9UM73 19-1620 limits assumed): as above

**Q.** Which Activity does the source give for `COc1cc(N2CCC(N3CCCC3)CC2)ccc1Nc1ncc(Cl)c(Nc2ccccc2P(C)(C)=O)n1` here?
**A.** 51%

**Q.** For `COc1cc(C2CCN(C)CC2)ccc1Nc1ncc(Cl)c(Nc2ccccc2P(C)(C)=O)n1`, which Activity is on record?
**A.** 118%

System: not listed separately
Experiment: animal or person
Details: Homo sapiens, KARPAS-299, po, 312 h, read-out: TGI
Remark: another data set of the same source
Description: Antitumor activity against human KARPAS299 cells expressing NMP-ALK fusion protein xenografted in SCID/beige mouse assessed as tumor growth inhibition at 25 mg/kg, po administered once daily for 13 days relative to untreated control

**Q.** Which inhibition in vivo at 25 mg/kg does the source give for `COc1cc(N2CCC(N3CCCC3)CC2)ccc1Nc1ncc(Cl)c(Nc2ccccc2P(C)(C)=O)n1` here?
**A.** 52%
